Measured values from publication PMC9856672, “SGC-CAMKK2-1: A Chemical Probe for CAMKK2” (Cells, 2023).

Experiments:
[1] = biological target: T1, PFCDPK1(P.falciparum) (Plasmodium falciparum, UniProt P62344); test: KINOMEscan binding assay at 1 μM, PFCDPK1(P.falciparum); conditions: Compound Concentration 1000 nM; read-out: Percent Control
T1 construct: purchased Eurofins DiscoverX KINOMEscan
Source text: (§1) Supplement cells-12-00287-s001.zip/File S2. KinomeScan data for the CAMKK2 probe and negative control.xlsx, sheet "SGC-CAMKK2-1N" | column: Percent Control

[2] = biological target: T2, ABL1(H396P)-nonphosphorylated (Homo sapiens, UniProt P00519, H396P); test: KINOMEscan at 1 μM, ABL1(H396P)-nonphosphorylated; assay type: binding; conditions: 1000 nM, read-out: Percent Control
T2 construct: purchased Eurofins DiscoverX KINOMEscan
Source text: as §1

[3] = biological target: T3, RSK1(Kin.Dom.1-N-terminal) (Homo sapiens, UniProt Q15418); test: KINOMEscan at 1 μM, RSK1(Kin.Dom.1-N-terminal); assay type: binding; conditions: 1000 nM, read-out: Percent Control
T3 construct: RSK1(Kin.Dom.1-N-terminal); purchased Eurofins DiscoverX KINOMEscan
Source text: as §1

[4] = system: FLT3(ITD); test: KINOMEscan at 1 μM, FLT3(ITD); assay type: binding, human; conditions: 1000 nM
Source text: as §1

[5] = biological target: T4, EPHA6 (Homo sapiens, UniProt Q9UF33); test: KINOMEscan binding assay at 1 μM, EPHA6; conditions: Compound Concentration 1000 nM; read-out: Percent Control
T4 construct: purchased Eurofins DiscoverX KINOMEscan
T4 sequence (Q9UF33 23-1036): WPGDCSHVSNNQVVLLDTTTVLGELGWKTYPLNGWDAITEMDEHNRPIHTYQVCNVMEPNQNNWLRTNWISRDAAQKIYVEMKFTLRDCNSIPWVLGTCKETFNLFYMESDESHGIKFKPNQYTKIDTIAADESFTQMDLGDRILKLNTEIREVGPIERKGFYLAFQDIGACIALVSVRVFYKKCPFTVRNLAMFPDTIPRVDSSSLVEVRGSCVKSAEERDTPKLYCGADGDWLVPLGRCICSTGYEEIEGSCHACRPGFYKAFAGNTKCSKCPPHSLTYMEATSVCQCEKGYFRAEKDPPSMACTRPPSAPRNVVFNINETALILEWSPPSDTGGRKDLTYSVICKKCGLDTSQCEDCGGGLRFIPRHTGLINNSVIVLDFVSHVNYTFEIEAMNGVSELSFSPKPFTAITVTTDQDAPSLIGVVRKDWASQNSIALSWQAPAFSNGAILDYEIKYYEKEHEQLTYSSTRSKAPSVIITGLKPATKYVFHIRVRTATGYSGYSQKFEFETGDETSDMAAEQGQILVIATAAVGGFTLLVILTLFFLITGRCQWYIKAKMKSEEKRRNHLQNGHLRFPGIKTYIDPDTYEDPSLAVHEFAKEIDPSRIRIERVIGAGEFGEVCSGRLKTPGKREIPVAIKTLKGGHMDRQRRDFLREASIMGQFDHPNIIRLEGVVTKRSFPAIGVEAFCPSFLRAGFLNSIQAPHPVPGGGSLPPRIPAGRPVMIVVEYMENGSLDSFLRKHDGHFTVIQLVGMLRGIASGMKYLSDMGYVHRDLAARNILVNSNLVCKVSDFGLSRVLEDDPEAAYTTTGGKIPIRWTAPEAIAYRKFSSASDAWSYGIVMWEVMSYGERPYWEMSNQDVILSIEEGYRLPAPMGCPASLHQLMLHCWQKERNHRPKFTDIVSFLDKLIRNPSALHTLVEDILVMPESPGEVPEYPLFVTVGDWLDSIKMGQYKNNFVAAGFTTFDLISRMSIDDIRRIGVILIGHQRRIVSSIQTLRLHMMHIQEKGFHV
Source text: as §1

[6] = biological target: T5, MAP4K4 (Homo sapiens, UniProt O95819); test: KINOMEscan at 1 μM, MAP4K4; assay type: binding; conditions: 1000 nM, read-out: Percent Control
T5 construct: purchased Eurofins DiscoverX KINOMEscan
T5 sequence (O95819 whole entry): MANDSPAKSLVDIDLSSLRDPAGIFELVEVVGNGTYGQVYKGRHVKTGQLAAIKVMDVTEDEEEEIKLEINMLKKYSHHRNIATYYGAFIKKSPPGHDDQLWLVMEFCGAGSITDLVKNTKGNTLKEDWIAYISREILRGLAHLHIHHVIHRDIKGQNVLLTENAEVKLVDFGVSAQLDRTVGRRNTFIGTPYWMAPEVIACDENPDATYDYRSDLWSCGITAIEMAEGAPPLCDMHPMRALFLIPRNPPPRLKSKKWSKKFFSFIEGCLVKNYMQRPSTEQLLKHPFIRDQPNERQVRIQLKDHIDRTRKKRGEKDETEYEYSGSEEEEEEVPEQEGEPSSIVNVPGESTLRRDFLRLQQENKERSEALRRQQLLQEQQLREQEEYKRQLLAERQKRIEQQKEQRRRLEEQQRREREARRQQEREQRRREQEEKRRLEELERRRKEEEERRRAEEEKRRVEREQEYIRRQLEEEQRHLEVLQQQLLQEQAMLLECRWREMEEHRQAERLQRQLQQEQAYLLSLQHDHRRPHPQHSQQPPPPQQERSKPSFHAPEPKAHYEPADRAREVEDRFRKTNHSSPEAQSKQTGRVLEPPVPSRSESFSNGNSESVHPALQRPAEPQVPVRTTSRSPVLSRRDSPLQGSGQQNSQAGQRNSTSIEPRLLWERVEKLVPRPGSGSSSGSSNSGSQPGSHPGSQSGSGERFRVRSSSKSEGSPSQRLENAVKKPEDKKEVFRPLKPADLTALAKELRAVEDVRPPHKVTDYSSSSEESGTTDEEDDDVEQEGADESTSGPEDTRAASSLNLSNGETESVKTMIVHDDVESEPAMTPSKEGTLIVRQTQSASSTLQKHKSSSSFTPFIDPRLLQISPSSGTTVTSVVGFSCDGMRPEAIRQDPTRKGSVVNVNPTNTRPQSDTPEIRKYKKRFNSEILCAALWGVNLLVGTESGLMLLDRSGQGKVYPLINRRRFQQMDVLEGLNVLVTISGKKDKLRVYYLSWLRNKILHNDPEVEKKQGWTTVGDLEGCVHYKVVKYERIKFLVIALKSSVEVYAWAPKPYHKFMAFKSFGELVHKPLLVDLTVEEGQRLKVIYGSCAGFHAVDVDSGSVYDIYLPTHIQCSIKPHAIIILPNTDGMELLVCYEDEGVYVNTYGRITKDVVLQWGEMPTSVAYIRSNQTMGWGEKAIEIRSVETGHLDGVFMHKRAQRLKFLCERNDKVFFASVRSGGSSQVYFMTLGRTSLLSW
Source text: as §1

[7] = biological target: T6, S6K1 (Homo sapiens, UniProt P23443); test: KINOMEscan at 1 μM, S6K1; assay type: binding; conditions: 1000 nM, read-out: Percent Control
T6 construct: purchased Eurofins DiscoverX KINOMEscan
Source text: as §1

[8] = biological target: T7, PRKG1 (Homo sapiens, UniProt Q13976); test: KINOMEscan binding assay at 1 μM, PRKG1; conditions: Compound Concentration 1000 nM; read-out: Percent Control
T7 construct: purchased Eurofins DiscoverX KINOMEscan
Source text: as §1

[9] = biological target: T8, MAP3K1 (Homo sapiens, UniProt Q13233); test: KINOMEscan at 1 μM, MAP3K1; assay type: binding; conditions: 1000 nM, read-out: Percent Control
T8 construct: purchased Eurofins DiscoverX KINOMEscan
Source text: as §1

[10] = biological target: T9, JAK2(JH1domain-catalytic) (Homo sapiens, UniProt O60674); test: KINOMEscan at 1 μM, JAK2(JH1domain-catalytic); assay type: binding; conditions: 1000 nM, read-out: Percent Control
T9 construct: JAK2(JH1domain-catalytic); purchased Eurofins DiscoverX KINOMEscan
T9 sequence (O60674 840-1132 limits assumed): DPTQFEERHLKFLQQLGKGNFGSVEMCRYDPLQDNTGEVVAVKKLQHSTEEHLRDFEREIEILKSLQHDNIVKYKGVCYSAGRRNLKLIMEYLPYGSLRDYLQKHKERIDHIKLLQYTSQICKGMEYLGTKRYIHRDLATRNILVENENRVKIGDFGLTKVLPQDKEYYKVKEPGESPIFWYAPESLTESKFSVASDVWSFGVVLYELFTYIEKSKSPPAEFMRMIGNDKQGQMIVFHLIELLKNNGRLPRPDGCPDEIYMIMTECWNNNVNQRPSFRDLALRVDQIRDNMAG
Source text: as §1

[11] = biological target: T10, CLK4 (Homo sapiens, UniProt Q9HAZ1); test: KINOMEscan at 1 μM, CLK4; assay type: binding; conditions: 1000 nM, read-out: Percent Control
T10 construct: purchased Eurofins DiscoverX KINOMEscan
Source text: as §1

[12] = biological target: T11, CAMK2D (Homo sapiens, UniProt Q13557); test: KINOMEscan at 1 μM, CAMK2D; assay type: binding; conditions: 1000 nM, read-out: Percent Control
T11 construct: purchased Eurofins DiscoverX KINOMEscan
Source text: as §1

[13] = biological target: T12, ABL1-phosphorylated (Homo sapiens, UniProt P00519); test: KINOMEscan at 1 μM, ABL1-phosphorylated; assay type: binding; conditions: 1000 nM, read-out: Percent Control
T12 construct: purchased Eurofins DiscoverX KINOMEscan
Source text: as §1

[14] = biological target: T13, TAOK3 (Homo sapiens, UniProt Q9H2K8); test: KINOMEscan at 1 μM, TAOK3; assay type: binding; conditions: 1000 nM, read-out: Percent Control
T13 construct: purchased Eurofins DiscoverX KINOMEscan
Source text: as §1

[15] = biological target: T14, PIK3CA(H1047Y) (Homo sapiens, UniProt P42336, H1047Y); test: KINOMEscan at 1 μM, PIK3CA(H1047Y); assay type: binding; conditions: 1000 nM, read-out: Percent Control
T14 construct: purchased Eurofins DiscoverX KINOMEscan
Source text: as §1

[16] = biological target: T15, PCTK2 (Homo sapiens, UniProt Q00537); test: KINOMEscan at 1 μM, PCTK2; assay type: binding; conditions: 1000 nM, read-out: Percent Control
T15 construct: purchased Eurofins DiscoverX KINOMEscan
Source text: as §1

[17] = biological target: T16, MAK (Homo sapiens, UniProt P20794); test: KINOMEscan at 1 μM, MAK; assay type: binding; conditions: 1000 nM, read-out: Percent Control
T16 construct: purchased Eurofins DiscoverX KINOMEscan
T16 sequence (P20794 whole entry): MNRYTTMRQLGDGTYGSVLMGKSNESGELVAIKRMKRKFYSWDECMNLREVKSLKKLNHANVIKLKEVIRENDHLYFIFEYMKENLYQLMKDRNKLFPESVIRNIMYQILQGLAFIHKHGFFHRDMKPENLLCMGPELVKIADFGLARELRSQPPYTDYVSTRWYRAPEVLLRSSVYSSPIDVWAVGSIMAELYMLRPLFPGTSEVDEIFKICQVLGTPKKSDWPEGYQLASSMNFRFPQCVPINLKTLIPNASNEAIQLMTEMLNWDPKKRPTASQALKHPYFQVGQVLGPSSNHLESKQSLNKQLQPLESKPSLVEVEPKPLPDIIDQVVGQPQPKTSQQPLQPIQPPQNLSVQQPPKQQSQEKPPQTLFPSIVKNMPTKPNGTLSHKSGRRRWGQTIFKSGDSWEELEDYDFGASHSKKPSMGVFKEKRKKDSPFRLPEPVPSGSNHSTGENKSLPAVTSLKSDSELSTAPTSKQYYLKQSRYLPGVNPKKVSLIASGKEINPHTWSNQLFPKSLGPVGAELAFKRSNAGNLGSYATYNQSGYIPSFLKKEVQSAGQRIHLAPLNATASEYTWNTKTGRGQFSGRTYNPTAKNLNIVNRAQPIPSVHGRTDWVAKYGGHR
Source text: as §1

[18] = biological target: T17, NEK10 (Homo sapiens, UniProt Q6ZWH5); test: KINOMEscan at 1 μM, NEK10; assay type: binding; conditions: 1000 nM, read-out: Percent Control
T17 construct: purchased Eurofins DiscoverX KINOMEscan
Source text: as §1

[19] = biological target: T18, ABL2 (Homo sapiens, UniProt P42684); test: KINOMEscan at 1 μM, ABL2; assay type: binding; conditions: 1000 nM, read-out: Percent Control
T18 construct: purchased Eurofins DiscoverX KINOMEscan
Source text: as §1

[20] = biological target: T19, TRKB (Homo sapiens, UniProt Q16620); test: DiscoverX KINOMEscan binding assay at 1 μM, TRKB; conditions: TRKB (NTRK2); Compound Concentration 1000 nM; read-out: Percent Control
T19 construct: purchased Eurofins DiscoverX KINOMEscan
Source text: (§2) Supplement cells-12-00287-s001.zip/File S2. KinomeScan data for the CAMKK2 probe and negative control.xlsx, sheet "SGC-CAMKK2-1" | column: Percent Control

[21] = biological target: T20, DCAMKL3 (Homo sapiens, UniProt Q9C098); test: KINOMEscan 1 μM, DCAMKL3; assay type: binding; conditions: 1000 nM; Entrez DCLK3; read-out: Percent Control
T20 construct: purchased Eurofins DiscoverX KINOMEscan
Source text: as §2

[22] = biological target: T9, JAK2(JH1domain-catalytic); test: KINOMEscan 1 μM, JAK2(JH1domain-catalytic); assay type: binding; conditions: 1000 nM; Entrez JAK2; read-out: Percent Control
Source text: as §2

[23] = biological target: T21, JAK1(JH2domain-pseudokinase) (Homo sapiens, UniProt P23458); test: KINOMEscan 1 μM, JAK1(JH2domain-pseudokinase); assay type: binding; conditions: 1000 nM; Entrez JAK1; read-out: Percent Control
T21 construct: JAK1(JH2domain-pseudokinase); purchased Eurofins DiscoverX KINOMEscan
Source text: as §2

[24] = biological target: T22, TBK1 (Homo sapiens, UniProt Q9UHD2); test: KINOMEscan 1 μM, TBK1; assay type: binding; conditions: 1000 nM; Entrez TBK1; read-out: Percent Control
T22 construct: purchased Eurofins DiscoverX KINOMEscan
Source text: as §2

[25] = biological target: T23, RSK2(Kin.Dom.2-C-terminal) (Homo sapiens, UniProt P51812); test: DiscoverX KINOMEscan binding assay at 1 μM, RSK2(Kin.Dom.2-C-terminal); conditions: RSK2(Kin.Dom.2-C-terminal) (RPS6KA3); Compound Concentration 1000 nM; read-out: Percent Control
T23 construct: RSK2(Kin.Dom.2-C-terminal); purchased Eurofins DiscoverX KINOMEscan
Source text: as §2

[26] = biological target: T24, PRKD2 (Homo sapiens, UniProt Q9BZL6); test: DiscoverX KINOMEscan binding assay at 1 μM, PRKD2; conditions: Compound Concentration 1000 nM, read-out: Percent Control
T24 construct: purchased Eurofins DiscoverX KINOMEscan
T24 sequence (Q9BZL6 whole entry): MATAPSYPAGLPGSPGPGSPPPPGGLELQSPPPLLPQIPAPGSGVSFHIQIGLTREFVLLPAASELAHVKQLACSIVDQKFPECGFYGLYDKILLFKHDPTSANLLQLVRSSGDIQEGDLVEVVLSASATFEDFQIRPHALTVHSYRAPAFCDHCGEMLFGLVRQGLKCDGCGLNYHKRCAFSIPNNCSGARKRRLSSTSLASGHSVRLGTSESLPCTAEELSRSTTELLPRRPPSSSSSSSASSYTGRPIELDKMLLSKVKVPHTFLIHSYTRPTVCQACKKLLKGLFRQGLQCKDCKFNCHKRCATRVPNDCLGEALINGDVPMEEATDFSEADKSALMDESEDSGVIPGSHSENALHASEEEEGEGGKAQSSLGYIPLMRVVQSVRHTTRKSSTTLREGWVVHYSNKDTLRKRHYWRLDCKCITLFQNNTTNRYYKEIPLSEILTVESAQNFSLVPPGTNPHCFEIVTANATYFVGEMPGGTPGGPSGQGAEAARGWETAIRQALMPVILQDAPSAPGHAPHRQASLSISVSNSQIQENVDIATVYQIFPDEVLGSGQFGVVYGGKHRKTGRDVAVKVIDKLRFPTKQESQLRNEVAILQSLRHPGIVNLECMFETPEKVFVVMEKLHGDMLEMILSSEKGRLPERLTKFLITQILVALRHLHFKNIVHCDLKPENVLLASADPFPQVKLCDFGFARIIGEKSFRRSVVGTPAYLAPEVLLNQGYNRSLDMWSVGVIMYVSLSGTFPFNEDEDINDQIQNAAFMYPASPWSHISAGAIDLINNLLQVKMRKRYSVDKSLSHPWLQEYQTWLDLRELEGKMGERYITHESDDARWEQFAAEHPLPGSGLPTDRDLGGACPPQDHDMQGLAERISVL
Source text: as §2

[27] = biological target: T25, NIK (Homo sapiens, UniProt Q99558); test: KINOMEscan 1 μM, NIK; assay type: binding; conditions: 1000 nM; Entrez MAP3K14; read-out: Percent Control
T25 construct: purchased Eurofins DiscoverX KINOMEscan
Source text: as §2

[28] = biological target: T26, ITK (Homo sapiens, UniProt Q08881); test: KINOMEscan 1 μM, ITK; assay type: binding; conditions: 1000 nM; Entrez ITK; read-out: Percent Control
T26 construct: purchased Eurofins DiscoverX KINOMEscan
T26 sequence (Q08881 whole entry): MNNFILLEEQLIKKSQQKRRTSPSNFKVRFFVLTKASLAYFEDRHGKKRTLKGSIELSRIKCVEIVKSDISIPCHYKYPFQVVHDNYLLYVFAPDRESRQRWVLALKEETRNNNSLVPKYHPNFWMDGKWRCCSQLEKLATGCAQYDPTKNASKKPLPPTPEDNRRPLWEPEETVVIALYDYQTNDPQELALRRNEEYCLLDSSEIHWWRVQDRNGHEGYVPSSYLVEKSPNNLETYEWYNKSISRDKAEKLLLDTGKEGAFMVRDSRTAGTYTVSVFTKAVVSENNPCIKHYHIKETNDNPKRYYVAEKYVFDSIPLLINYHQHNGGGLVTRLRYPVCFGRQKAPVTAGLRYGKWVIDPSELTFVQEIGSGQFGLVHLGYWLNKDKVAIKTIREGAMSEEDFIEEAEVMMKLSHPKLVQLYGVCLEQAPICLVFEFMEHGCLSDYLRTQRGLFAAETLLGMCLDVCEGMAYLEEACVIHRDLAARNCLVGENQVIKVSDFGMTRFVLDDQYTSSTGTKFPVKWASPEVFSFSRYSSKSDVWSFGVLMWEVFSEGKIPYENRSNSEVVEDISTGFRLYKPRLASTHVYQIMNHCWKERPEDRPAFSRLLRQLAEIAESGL
Source text: as §2

[29] = biological target: T27, MKNK2 (Homo sapiens, UniProt Q9HBH9); test: KINOMEscan 1 μM, MKNK2; assay type: binding; conditions: 1000 nM; Entrez MKNK2; read-out: Percent Control
T27 construct: purchased Eurofins DiscoverX KINOMEscan
Source text: as §2

[30] = biological target: T28, CAMK1B (Homo sapiens, UniProt Q6P2M8); test: KINOMEscan 1 μM, CAMK1B; assay type: binding; conditions: 1000 nM; Entrez PNCK; read-out: Percent Control
T28 construct: purchased Eurofins DiscoverX KINOMEscan
T28 sequence (Q6P2M8 whole entry): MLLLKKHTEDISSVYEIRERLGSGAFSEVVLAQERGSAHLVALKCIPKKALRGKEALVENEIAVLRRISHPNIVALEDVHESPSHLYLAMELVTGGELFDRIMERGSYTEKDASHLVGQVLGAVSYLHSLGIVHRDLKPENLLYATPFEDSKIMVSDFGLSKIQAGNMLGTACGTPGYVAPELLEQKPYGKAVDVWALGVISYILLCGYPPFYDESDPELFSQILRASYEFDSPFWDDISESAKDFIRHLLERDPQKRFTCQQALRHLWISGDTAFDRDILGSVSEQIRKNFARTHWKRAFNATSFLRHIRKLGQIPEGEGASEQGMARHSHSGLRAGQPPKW
Source text: as §2

[31] = biological target: T29, YANK3 (Homo sapiens, UniProt Q86UX6); test: DiscoverX KINOMEscan binding assay at 1 μM, YANK3; conditions: YANK3 (STK32C); Compound Concentration 1000 nM; read-out: Percent Control
T29 construct: purchased Eurofins DiscoverX KINOMEscan
Source text: as §2

[32] = biological target: T30, CDK11 (Homo sapiens, UniProt Q9BWU1); test: KINOMEscan 1 μM, CDK11; assay type: binding; conditions: 1000 nM; Entrez CDK19; read-out: Percent Control
T30 construct: purchased Eurofins DiscoverX KINOMEscan
Source text: as §2

## O=C(O)c1ccc(-c2coc3ncc(-c4ccccc4)cc23)cc1Cl [SGC-CAMKK2-1N (UNC-YL-83)]
[1]
  remaining binding at 1 µM: 100%
[2]
  remaining binding at 1 µM: 64%
[3]
  remaining binding at 1 µM: 99%
[4]
  Percent Control: 81
[5]
  remaining binding at 1 µM: 100%
[6]
  remaining binding at 1 µM: 94%
[7]
  remaining binding at 1 µM: 76%
[8]
  remaining binding at 1 µM: 100%
[9]
  remaining binding at 1 µM: 74%
[10]
  remaining binding at 1 µM: 80%
[11]
  remaining binding at 1 µM: 93%
[12]
  remaining binding at 1 µM: 77%
[13]
  remaining binding at 1 µM: 69%
[14]
  remaining binding at 1 µM: 79%
[15]
  remaining binding at 1 µM: 59%
[16]
  remaining binding at 1 µM: 81%
[17]
  remaining binding at 1 µM: 83%
[18]
  remaining binding at 1 µM: 82%
[19]
  remaining binding at 1 µM: 100%

## Cc1cccc(-c2cnc3occ(-c4ccc(C(=O)O)c(C5CCCC5)c4)c3c2)c1 [SGC-CAMKK2-1 (YL-36)]
[20]
  remaining binding at 1 µM: 100%
[21]
  remaining binding at 1 µM: 100%
[22]
  remaining binding at 1 µM: 100%
[23]
  remaining binding at 1 µM: 90%
[24]
  remaining binding at 1 µM: 94%
[25]
  remaining binding at 1 µM: 100%
[26]
  remaining binding at 1 µM: 100%
[27]
  remaining binding at 1 µM: 89%
[28]
  remaining binding at 1 µM: 100%
[29]
  remaining binding at 1 µM: 100%
[30]
  remaining binding at 1 µM: 64%
[31]
  remaining binding at 1 µM: 100%
[32]
  remaining binding at 1 µM: 98%
